Test results from US20090074722A1, “Products and methods for treating PTP lar diseases” (MAX-PLANCK-GESELLSCHAFT ZUR, priority 1999, published 2009).

Assays:
NBT II cells [1] = assay: In vitro wound assay (migration of NBT II cells); assay type: cell-based, rat
Experimental: FIGS. 1A and 1B show the migration of epithelial NBT II cells under varying conditions. […] Twenty-four hours after plating, the confluent cell monolayer was scratched as described in the Examples. EGF (100 ng/mL) or Ultroser G (2%) were added. Wound closure was documented by photography. The calibration bar indicates 80 pn. Migration Assays-For in vitro wound assays, NBT II cells were plated at a density of 7×10^4 cells/cm^2. After 24 hours the confluent monolayer was scratched with a pipette tip to create a cell free area, growth factors were added, and wound closure was documented by photography. For scatter assays, cells were plated at a cell density of 1×10^4 cells/cm^2. Growth factors were added after 24 hours, and the morphology of cells and the dispersion of small colonies were documented by photography. Quantification of migration was performed by counting single cells with fibroblastoid migration morphology compared to cells in groups with epithelial morphology in different, randomly chosen microscopic fields. 1000 cells per dish were counted. All migration assays were performed in triplicate. Tyrosine kinases (TK), mitogen-activated protein kinase (MAPK) or phosphatidylinositol-3-kinase (Pl3K), were inhibited by Genistein (250 μM; Biomol), added one hour before addition of the growth factors. As a control, the solvent DMSO was used. DNA synthesis was inhibited by the specific inhibitor of DNA polymerase, α Aphidicolin (1.5 μM; Serva) 1 hour before adding the growth factors. Migration of epithelial cells in tissue culture represents in many aspects a model system of the epithelial-mesenchymal transition ([…], et al. (1994) Int. Rev. Cytol. 155, 49-9). The rat bladder carcinoma cell line NBT II (Toyoshima, et al. (1971) J. Nat. Cancer Inst. 47, 979-985) was used, since certain growth factors and components of the extracellular matrix (ECM) induce migration of these cells (Valles, et al. (1990) Proc. Natl. Acad. Sci. USA 87, 1124-1128; Tchao, R. (1982) Cell Motil. 4, 333-341; Tucker, et al. (1990) Cancer Res. 50, 129-137).

[2] = tested on: free, uncomplexed β-catenin; assay: Affinity precipitation of free β-catenin with GST-E-cadherin cytoplasmic fusion protein; assay type: cell-based, rat; details: EGF 100 ng/mL
Experimental: NBT II cells were plated at a density of 1×10^4 cells/cm^2. Twenty-four hours later EGF (100 ng/mL) was added for the indicated time intervals. 30 minutes before lysis Na-orthovanadate (1 mM) was added. Subsequently affinity precipitations were performed with 5 μg of a GST/E-cadherin cytoplasmic protein or GST in a three-fold molar excess. Proteins were separated by SDS-PAGE, and the levels of free, uncomplexed β-catenin were analyzed by Western blotting with an anti-β-catenin-antibody (top). […] Note that in comparison to FIG. 2, cells were pretreated for only 30 minutes with Na-orthovanadate. Arrows indicate the proteins of interest. Molecular mass standards in kilodaltons are shown on the left.
NBT II cells infected with the empty vector pLXSN (left) or human PTP LAR (right) were plated at 1×10^4 cells/cm^2 and stimulated after 24 h with EGF (100 ng/mL) for the indicated time intervals. Na-orthovanadate pretreatment was omitted to avoid irreversible inhibition of protein tyrosine phosphatase activity. Cells were lysed and in vitro associations were performed with 5 μg of the GST-E-cadherin cytoplasmic protein or GST in a three-fold molar excess. Proteins were separated by SDS-PAGE, and the levels of free, uncomplexed β-catenin were analyzed by Western blotting with an anti-β-catenin antibody (top). […] Arrows indicate the proteins of interest. […]

NBT II cells [3] = assay: Tumor formation in nude mice; assay type: in vivo, Swiss nude mice; details: NBT II hPTP LAR cells injected subcutaneously into flank, 2×10^6/50 μL
Experimental: NBT II cells, infected with the empty vector pLXSN (filled triangle) or human PTP LAR (filled square), were injected (2×10^6/50 μL) subcutaneously into the flank region of Swiss nude mice. Tumor formation was monitored.
Tumor formation in Nude Mice—NBT II cells were resuspended at a cell density of 2×10^6/50 μL in MEM and injected subcutaneously into the flank region of Swiss nude mice (IGR Villejuif, Paris, France). Tumor formation was monitored by measuring the width (W) and length (L) of the tumors with W<L. The tumor volume was calculated according to the formula (W^2×L×π/6). Assays were performed at least in triplicate.

NBT II cells [4] = assay: DNA-synthesis and proliferation rate of NBT II-hPTP LAR cell lines; assay type: cell-based, rat; details: ectopic expression in NBT II cells
NBT II cells [5] = assay: Scatter assay of NBT II cells after EGF treatment; assay type: cell-based, rat; details: ectopic expression, about twice the PTP LAR expression of parental cells; EGF 100 ng/mL
Experimental: FIGS. 7A and 7B show a scatter assay of NBT II pLXSN and NBT II hPTP LAR cells. In FIG. 7A, NBT II cells infected with the empty vector pLXSN (left) or human PTP LAR (right) were plated at 1×10^4 cells/cm^2 and stimulated 24 h later with EGF (100 ng/mL) as indicated. After 7 h, the migration morphology was documented by photography.
To this end, 1000 cells per dish from randomly chosen microscopic fields were counted; assays were performed in triplicate. A cell was judged as a migrating cell when it had changed from a cobblestone-like, epithelial morphology to a migrating, fibroblastoid phenotype.
Migration Assays—For in vitro wound assays, NBT II cells were plated at a density of 7×10^4 cells/cm^2. After 24 hours the confluent monolayer was scratched with a pipette tip to create a cell free area, growth factors were added, and wound closure was documented by photography. For scatter assays, cells were plated at a cell density of 1×10^4 cells/cm^2. Growth factors were added after 24 hours, and the morphology of cells and the dispersion of small colonies were documented by photography. Quantification of migration was performed by counting single cells with fibroblastoid migration morphology compared to cells in groups with epithelial morphology in different, randomly chosen microscopic fields. 1000 cells per dish were counted. All migration assays were performed in triplicate. […]

[6] = tested on: β-catenin and plakoglobin; assay: Tyrosine phosphorylation of β-catenin and plakoglobin in migrating NBT II cells (immunoprecipitation, Western blot); assay type: cell-based, rat; details: pretreatment with 1 mM Na-orthovanadate
Experimental: NBT II cells were plated at a density of 1×10^4 cells/cm^2. Twenty-four hours later growth factors were added to induce migration (EGF: 100 ng/mL; aFGF: 30 ng/mL including 50 μg/mL heparin; Ultroser G: 2%). Ninety minutes before lysis, Na-orthovanadate (1 mM) was added (right) or not (left). As a positive control, cells were treated for 10 minutes with pervanadate. After lysis the cadherin/catenin complex was immunoprecipitated and precipitates were separated by SDS-PAGE. Tyrosine phosphorylation levels were analyzed by Western blotting with an anti-phosphotyrosine antibody (top). The membranes were reprobed with specific antibodies to E-cadherin (middle) or the catenins (bottom) to assure equal amounts of precipitated proteins. Highly tyrosine phosphorylated β-catenin (as hereafter pervanadate treatment) was not efficiently immunodecorated in the reblot. Arrows indicate the proteins of interest. Molecular mass standards in kilodaltons are shown on the left.
Transient Expression, Cell Lysis, and Immunoprecipitation—Transient transfection of human 293 embryonic kidney cells was performed as described (Chen, et al. (1987) Mol. Cell. Biol. 7, 2745-2752, hereby incorporated herein by reference in its entirety, including any drawings, figures, or tables). For biochemical analysis, NBT II cells were plated at a density of 1×10^4 cells/cm^2 at the day before lysis. […]

[7] = inhibition of PI3K or MAPK, concentration not given

## C[C@@]1(CO)[C@H](O)CC[C@@]2(C)[C@H]1CC[C@H]1C[C@@H]3C[C@@]12CC[C@]3(O)CO [Aphidicolin]
NBT II cells [1]; Aphidicolin 1.5 μM, added 1 hour before the growth factors, inhibition of DNA-synthesis
  effect on cell migration (wound closure): did not interfere with migration

## EGF: growth factor used to induce epithelial cell migration [reference compound]
[2]; NBT II cells
  free pool of β-catenin: increase of the free pool of β-catenin

## COc1cccc(-c2cc(=O)c3ccccc3o2)c1N [PD98059]
NBT II cells [1]; [7]
  effect on cell migration (wound closure): completely abolished cell migration

## hPTP LAR: full-length human PTP LAR ectopically expressed in NBT II cells by retroviral gene transfer (pLXSN)
NBT II cells [3]
  tumor growth in comparison to NBT II pLXSN cells: significantly reduced tumor growth
NBT II cells [4]
  DNA-synthesis and proliferation rate: not affected
NBT II cells [5]
  EMT and motility relative to vector-control infected cell lines (NBT II pLXSN): about 40%
[2]; NBT II-hPTP LAR-expressing cells, no Na-orthovanadate
  tyrosine phosphorylation and increase of the free pool of β-catenin: neither tyrosine phosphorylation, nor an increase in the free pool of β-catenin were detectable

## O=c1cc(N2CCOCC2)oc2c(-c3ccccc3)cccc12 [ly295002]
NBT II cells [1]; [7]
  effect on cell migration (wound closure): completely abolished cell migration

## O=c1c(-c2ccc(O)cc2)coc2cc(O)cc(O)c12 [Genistein]
NBT II cells [1]; Genistein 250 μM, added one hour before the growth factors, inhibition of tyrosine kinases
  effect on cell migration (wound closure): completely abolished cell migration

## [Na+].[Na+].[Na+].[O]=[V]([O-])([O-])[O-] [Na-orthovanadate]
[6]
  tyrosine phosphorylation of β-catenin and plakoglobin: increased tyrosine phosphorylation
